Measured values published in patent publication US7598397B2, “Sulfonamide peri-substituted bicyclics for occlusive artery disease” (deCODE genetics ehf, priority 2004, dated 2009).

What follows are compounds tested against T1, prostanoid EP3 receptors (Homo sapiens, UniProt P43115) (assay: binding on prostanoid EP3 receptors (method of Abramovitz et al.)). Details: read-out: Activity (EP3 receptor binding, IC50 class).
T1 sequence (P43115 1-390): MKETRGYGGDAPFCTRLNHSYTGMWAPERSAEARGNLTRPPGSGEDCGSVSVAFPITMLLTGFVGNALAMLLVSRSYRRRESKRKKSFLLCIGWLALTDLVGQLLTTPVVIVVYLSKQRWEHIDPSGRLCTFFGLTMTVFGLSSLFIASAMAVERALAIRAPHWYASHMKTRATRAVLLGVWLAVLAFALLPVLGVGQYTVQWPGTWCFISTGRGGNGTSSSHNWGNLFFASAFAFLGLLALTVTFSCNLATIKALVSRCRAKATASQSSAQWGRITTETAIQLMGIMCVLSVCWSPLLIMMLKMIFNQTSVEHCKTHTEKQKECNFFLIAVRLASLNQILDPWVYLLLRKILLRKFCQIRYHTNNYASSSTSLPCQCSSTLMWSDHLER
Protocol: The compounds of the invention were assayed for their binding on prostanoid EP3 receptors according to the method of Abramovitz et al. [Bioch. Biophys.

Compound	IC50 [µM]
Cc1cn(Cc2ccc3c(c2)OCO3)c2c(/C=C/C(=O)NS(=O)(=O)c3cc(Cl)c(Cl)s3)cccc12 [Compound P139]	< 1
CC1C(=O)N(Cc2ccc(Cl)cc2Cl)c2c(C=CC(=O)NS(=O)(=O)c3cccs3)cc(F)cc21 (centres unmarked) [Compound P065]	< 1
O=C(COc1cccc2c1N(Cc1ccc(OC(F)(F)F)cc1)C(=O)CO2)NS(=O)(=O)c1cccs1 [Compound P027]	1 to 10
COc1cccc(Cn2cc(C)c3cccc(/C=C/C(=O)NS(=O)(=O)c4cc(Cl)c(Cl)s4)c32)c1 [Compound P142]	< 1
COc1cc(CN2C(=O)COc3cccc(OCC(=O)NS(=O)(=O)c4cccs4)c32)cc(OC)c1 [Compound P041]	1 to 10
O=C(C=Cc1cccc2c1C(Cc1ccc3ccccc3c1)C(=O)N2)NS(=O)(=O)c1cc(Cl)c(Cl)s1 (centres unmarked) [Compound P155]	< 1
CC(C)C1C(=O)N(Cc2ccc(Cl)cc2Cl)c2c(CCC(=O)NS(=O)(=O)c3cccs3)cccc21 (centres unmarked) [Compound P093]	1 to 10
O=C(C=Cc1cccc2c1N(Cc1ccc3ccccc3c1)C(=O)C2)NS(=O)(=O)c1cc(Cl)c(Cl)s1 [Compound P179]	< 1
Cc1cn(Cc2ccc(F)cc2)c2c(/C=C/C(=O)NS(=O)(=O)c3cc(Cl)c(Cl)s3)cccc12 [Compound P120]	< 1
O=C(C=Cc1cccc2c1N(Cc1ccc3ccccc3c1)C(=O)C2(F)F)NS(=O)(=O)c1cc(Cl)c(Cl)s1 [Compound P180]	< 1
Cc1cn(Cc2cc(F)cc3c2OCOC3)c2c(/C=C/C(=O)NS(=O)(=O)c3cccs3)cccc12 [Compound P102]	< 1
O=C(C=Cc1cccc2c1N(Cc1ccc3ccccc3c1)C(=O)C21OCCO1)NS(=O)(=O)c1cc(Cl)c(Cl)s1 [Compound P114]	< 1
CC(C)c1cn(Cc2ccc(Cl)cc2Cl)c2c(CCC(=O)NS(=O)(=O)c3cccs3)cccc12 [Compound P091]	1 to 10
CC(=O)c1cn(Cc2ccc(Cl)cc2Cl)c2c(C=CC(=O)NS(=O)(=O)c3cccs3)cccc12 [Compound P085]	< 1
Cc1ccc(CN2C(=O)COc3cccc(OCC(=O)NS(=O)(=O)c4cccs4)c32)cc1C [Compound P020]	1 to 10
O=C(COc1cccc2oc(=O)n(Cc3ccc(Cl)cc3Cl)c12)NS(=O)(=O)c1cccs1 [Compound P052]	< 1
Cc1ccc(S(=O)(=O)NC(=O)OCc2cccc3ccn(Cc4ccc5ccccc5c4)c23)cc1 [Compound P038]	< 1
Cc1cn(Cc2ccc(Cl)c(Cl)c2)c2c(/C=C/C(=O)NS(=O)(=O)c3cc(Cl)c(Cl)s3)cccc12 [Compound P118]	< 1
Cc1cn(Cc2ccccc2Cl)c2c(/C=C/C(=O)NS(=O)(=O)c3cccs3)cccc12 [Compound P086]	< 1
Cc1cn(Cc2ccccc2Cl)c2c(/C=C/C(=O)NS(=O)(=O)c3cc(Cl)c(Cl)s3)cccc12 [Compound P123]	< 1
Cc1cn(Cc2c(Cl)cccc2Cl)c2c(/C=C/C(=O)NS(=O)(=O)c3cc(Cl)c(Cl)s3)cccc12 [Compound P124]	< 1
O=C(COc1cccc2oc(=O)n(Cc3ccc4ccccc4c3)c12)NS(=O)(=O)c1cccs1 [Compound P046]	< 1
COCc1cn(Cc2ccc(Cl)cc2Cl)c2c(C=CC(=O)NS(=O)(=O)c3cccs3)cccc12 [Compound P070]	< 1
O=C(COc1cccc2[nH]cc(S(=O)(=O)c3ccc4ccccc4c3)c12)NS(=O)(=O)c1cccc(Cl)c1 [Compound P192]	< 1

Now from value to compound:

IC50 [µM]	Compound
< 1	Cc1cn(Cc2cn3ccccc3n2)c2c(C=CC(=O)NS(=O)(=O)c3cc(Cl)cc(Cl)c3)cc(F)cc12 [Compound P408]
< 1	Cn1cc(/C=C/C(=O)NS(=O)(=O)c2cc(Cl)c(Cl)s2)c2c(Oc3ccc(Cl)cc3)cccc21 [Compound P311]
< 1	Cc1cn(CCC(=O)NS(=O)(=O)c2cc(F)c(F)cc2F)c2c(Oc3ccc(Cl)c(Cl)c3)cc(F)cc12 [Compound P386]
< 1	CC12CCCC(C=CC(=O)NS(=O)(=O)c3cc(F)cc(F)c3)=C1N(Cc1ccc(Cl)cc1Cl)C(=O)C2 (centres unmarked) [Compound P282]
< 1	CC12CCCC(C=CC(=O)NS(=O)(=O)c3cc(Cl)cc(Cl)c3)=C1N(Cc1ccc(F)c(F)c1)C(=O)C2 (centres unmarked) [Compound P266]
< 1	CC12CCCC(C=CC(=O)NS(=O)(=O)c3ccc(F)c(F)c3)=C1N(Cc1ccc(F)c(F)c1)C(=O)C2 (centres unmarked) [Compound P304]
< 1	CN1C(=O)C(Nc2ccc(Cl)c(Cl)c2)c2c(C=CC(=O)NS(=O)(=O)c3cc(Cl)c(Cl)s3)cccc21 (centres unmarked) [Compound P271]
< 1	CC12CCCC(C=CC(=O)NS(=O)(=O)c3cc(F)cc(F)c3)=C1N(Cc1ccc(F)c(F)c1)C(=O)C2 (centres unmarked) [Compound P305]
< 1	Cn1cc(/C=C/C(=O)NS(=O)(=O)c2cc(Cl)c(Cl)s2)c2c(Oc3ccc(Cl)c(F)c3)cccc21 [Compound P333]
< 1	Cn1nnnc1Sc1c[nH]c2cccc(OCC(=O)NS(=O)(=O)c3cc(Cl)c(Cl)s3)c12 [Compound P227]
< 1	Cn1cc(C=CC(=O)NS(=O)(=O)c2ccccc2Cl)c2c(Oc3ccc4ccccc4c3)cccc21 [Compound P352]
< 1	O=C(C=Cc1cc(F)cc2c(C(=O)O)cn(Cc3ccc(Cl)cc3Cl)c12)NS(=O)(=O)c1cc(Cl)c(Cl)s1 [Compound P398]
< 1	CC(=O)Nc1ccc(Sc2c[nH]c3cccc(OCC(=O)NS(=O)(=O)c4cc(Cl)c(Cl)s4)c23)cc1 [Compound P233]
< 1	Cn1cc(C=CC(=O)NS(=O)(=O)c2cc(F)ccc2F)c2c(Oc3ccc4ccccc4c3)cccc21 [Compound P359]
< 1	O=C(COc1cccc2[nH]cc(S(=O)(=O)c3ccc4ccccc4c3)c12)NS(=O)(=O)c1cc(F)c(F)cc1F [Compound P237]
< 1	CC12CCCC(C=CC(=O)NS(=O)(=O)c3cc(F)c(F)cc3F)=C1N(Cc1cccc(Cl)c1Cl)C(=O)C2 (centres unmarked) [Compound P296]
< 1	Cn1cc(C=CC(=O)NS(=O)(=O)c2cc(F)c(F)cc2F)c2c(Oc3ccc(Cl)c(F)c3)cccc21 [Compound P331]
< 1	Cn1cc(C=CC(=O)NS(=O)(=O)c2cc(F)c(F)cc2F)c2c(Oc3cnc4ccccc4n3)cccc21 [Compound P394]
< 1	Cn1cc(C=CC(=O)NS(=O)(=O)c2cccc(Cl)c2)c2c(Oc3ccc4ccccc4c3)cccc21 [Compound P353]
< 1	Cn1cc(C=CC(=O)NS(=O)(=O)c2ccc(F)c(F)c2)c2c(Oc3ccc(F)cc3Cl)cccc21 [Compound P341]
< 1	Cn1cc(C=CC(=O)NS(=O)(=O)c2ccc(F)c(F)c2)c2c(Oc3ccc(Cl)c(Cl)c3)cccc21 [Compound P293]
< 1	Cn1cc(C=CC(=O)NS(=O)(=O)c2ccc(Cl)c(Cl)c2)c2c(Oc3ccc4ccccc4c3)cccc21 [Compound P355]
< 1	O=C(C=Cc1cccc2c1C(Nc1ccc(Cl)cc1Cl)C(=O)N2)NS(=O)(=O)c1cc(Cl)c(Cl)s1 (centres unmarked) [Compound P287]
< 1	Cc1cn(Cc2ccc(F)cc2)c2c(C=CC(=O)NS(=O)(=O)c3cc(F)cc(F)c3)cc(F)cc12 [Compound P316]
< 1	COc1ccc(S(=O)(=O)NC(=O)C=Cc2cn(C)c3cccc(Oc4ccc5ccccc5c4)c23)cc1 [Compound P366]
< 1	Cn1cc(C=CC(=O)NS(=O)(=O)c2ccc(F)cc2)c2c(Oc3ccc4ccccc4c3)cccc21 [Compound P351]
